From patent publication US20240400555A1 (Initial Therapeutics, Inc., priority 2023, published 2024)
Like-named read-outs stand apart in the source and are kept apart here.

System: MV-4-11 cells
Test: Cell Viability Assay in MV-4-11 Cells
Type: cell-based
Details: Homo sapiens, MV4-11, 72 h
Description: MV-4-11 cells (ATCC) were seeded into sterile 96-well flat clear bottom white polystyrene TC-treated microplates (Corning) at 7,000 cells/well in 150 μL complete growth medium (Iscove's Modified Dulbecco's Medium (IMDM) (Gibco), 10% Heat Inactivated Fetal Bovine Serum (HyClone), 1% Penicillin-Streptomycin-L-Glutamine (HyClone), 1% GlutaMAX (Gibco)). […] After 72 h incubation, plates were removed from incubators and allowed to equilibrate to room temperature (˜10 min) before adding 50 μL per well Cell-Titer Glo reagent (Promega) using a WellJet (Integra Biosciences) dispenser. Plates were then incubated at room temperature for 2-20 min prior to measurement of luminescence on an Envision (Perkin Elmer) plate reader. Data were normalized to DMSO (100% viability) and analyzed using a non-linear four-parameter curve fit.

[1] = MV-4-11 cells, 72 h, Cell-Titer Glo, read-out: IC50

IC50 [1] [nM]	Compound	IC50 [nM]
> 6300	Cc1cc2c(N(C(=O)c3ccc(-n4cnc5ccccc54)cc3F)[C@@H]3CCCNC3)nccc2s1 [Example 756, (R)-4-(1H-benzo[d]imidazol-1-yl)-2-fluoro-N-(2-methylthieno[3,2-c]pyridin-4-yl)-N-(piperidin-3-yl)benzamide]	–
390	O=C(c1ccc(-n2nnc3cccnc32)cc1F)N(c1nccc2sc(-c3nccs3)cc12)[C@@H]1CCCNC1 [Example 417, 2-fluoro-N-[(3R)-3-piperidyl]-N-(2-thiazol-2-ylthieno[3,2-c]pyridin-4-yl)-4-(triazolo[4,5-b]pyridin-3-yl)benzamide]	–
120	Cc1csc2ccnc(N(C(=O)c3ccc(Nc4ncccn4)cc3F)[C@@H]3CCCNC3)c12 [Example 468, (R)-2-fluoro-N-(3-methylthieno[3,2-c]pyridin-4-yl)-N-(piperidin-3-yl)-4-(pyrimidin-2-ylamino)benzamide]	–
38	Cc1cccc2ccnc(N(C(=O)c3ccc(Nc4nccc(CN5CCCC5)n4)cc3F)[C@@H]3CCCNC3)c12 [Example 961, (R)-2-fluoro-N-(8-methylisoquinolin-1-yl)-N-(piperidin-3-yl)-4-((4-(pyrrolidin-1-ylmethyl)pyrimidin-2-yl)amino)benzamide]	–
210	Cc1nnc(-c2ccc(C(=O)N(c3nccc4cc(F)cc(C)c34)C3CCCNC3)cc2)s1 (stereo not drawn) [Example 725, N-(6-fluoro-8-methyl-1-isoquinolyl)-4-(5-methyl-1,3,4-thiadiazol-2-yl)-N-(3-piperidyl)benzamide]	–
39	Cc1cccc2ccnc(N(C(=O)c3ccc(Nc4nccc(N5CCOC[C@H]5C(C)C)n4)cc3F)[C@@H]3CCCNC3)c12 [Example 941, 2-fluoro-4-((4-((R)-3-isopropylmorpholino)pyrimidin-2-yl)amino)-N-(8-methylisoquinolin-1-yl)-N—((R)-piperidin-3-yl)benzamide]	–
130	CCC(C)N(C)c1ccnc(Nc2ccc(C(=O)N(c3nccc4cccc(C)c34)[C@@H]3CCCNC3)c(F)c2)n1 (stereo partly drawn) [Example 952, 4-((4-(sec-butyl(methyl)amino)pyrimidin-2-yl)amino)-2-fluoro-N-(8-methylisoquinolin-1-yl)-N—((R)-piperidin-3-yl)benzamide]	–
920	Cn1cc(-c2ccc(C(=O)N(c3nccc4sc(-c5ccc6c(c5)CNC6=O)cc34)[C@@H]3CCCNC3)c(F)c2)nn1 [Example 538, 2-fluoro-4-(1-methyltriazol-4-yl)-N-[2-(1-oxoisoindolin-5-yl)thieno[3,2-c]pyridin-4-yl]-N-[(3R)-3-piperidyl]benzamide]	–
62	[2H]C([2H])([2H])Oc1cc(C)c2c(N(C(=O)c3ccc(-c4nnc(C)s4)nc3)[C@@H]3CCCNC3)nccc2c1 [Example 909]	–
220	NS(=O)(=O)c1ccc(-c2cc3c(N(C(=O)c4ccc(-n5nnc6cccnc65)cc4F)[C@@H]4CCCNC4)nccc3s2)cc1 [Example 414, 2-fluoro-N-[(3R)-3-piperidyl]-N-[2-(4-sulfamoylphenyl)thieno[3,2-c]pyridin-4-yl]-4-(triazolo[4,5-b]pyridin-3-yl)benzamide]	–
240	Cc1cccc2ccnc(N(C(=O)c3ccc(-c4nn(C)nc4Br)cc3F)[C@@H]3CCCNC3)c12 [Example 390, 4-(5-bromo-2-methyl-triazol-4-yl)-2-fluoro-N-(8-methyl-1-isoquinolyl)-N-[(3R)-3-piperidyl] benzamide]	–
–	Cc1cccc2ccnc(N(C(=O)c3ccc(C#CC(C)(C)O)cc3F)[C@@H]3CCCNC3)c12 [Example 592, (R)-2-fluoro-4-(3-hydroxy-3-methylbut-1-yn-1-yl)-N-(8-methylisoquinolin-1-yl)-N-(piperidin-3-yl)benzamide]	360
110	Cc1ccc(F)c2ccnc(N(C(=O)c3ccc(-c4cnn5cccnc45)cc3F)[C@@H]3CCCNC3)c12 [Example 626, (R)-2-fluoro-N-(5-fluoro-8-methylisoquinolin-1-yl)-N-(piperidin-3-yl)-4-(pyrazolo[1,5-a]pyrimidin-3-yl)benzamide]	–
560	Cc1nnc(-c2ccc(C(=O)N(c3nccc4c(C)ccc(C)c34)[C@@H]3CCCNC3)cc2)s1 [Example 878, N-(5,8-dimethyl-1-isoquinolyl)-4-(5-methyl-1,3,4-thiadiazol-2-yl)-N-[(3R)-3-piperidyl]benzamide]	–
69	COCCNc1ccnc(Nc2ccc(C(=O)N(c3nccc4cccc(C)c34)[C@@H]3CCCNC3)c(F)c2)n1 [Example 744, (R)-2-fluoro-4-((4-((2-methoxyethyl)amino)pyrimidin-2-yl)amino)-N-(8-methylisoquinolin-1-yl)-N-(piperidin-3-yl)benzamide]	–
110	CCn1cc(-c2ccc(C(=O)N(c3nccc4scc(C)c34)[C@@H]3CCCNC3)cn2)nn1 [Example 885, 6-(1-ethyltriazol-4-yl)-N-(3-methylthieno[3,2-c]pyridin-4-yl)-N-[(3R)-3-piperidyl]pyridine-3-carboxamide]	–
790	Cc1cccc2ccnc(N(C(=O)c3cccc(C#CCCN4C(=O)c5ccccc5C4=O)c3)[C@@H]3CCCNC3)c12 [Example 588, (R)-3-(4-(1,3-dioxoisoindolin-2-yl)but-1-yn-1-yl)-N-(8-methylisoquinolin-1-yl)-N-(piperidin-3-yl)benzamide]	–
–	CNC(=S)Nc1ccc(-c2cc3c(N(C(=O)c4ccc(-c5cn(C)nn5)cc4F)[C@@H]4CCCNC4)nccc3s2)cc1 [Example 548, (R)-2-fluoro-4-(1-methyl-1H-1,2,3-triazol-4-yl)-N-(2-(4-(3-methylthioureido)phenyl)thieno[3,2-c]pyridin-4-yl)-N-(piperidin-3-yl)benzamide]	240
3200	Cn1cc(-c2ccc(C(=O)N(c3nccc4sc(C#CCO)cc34)[C@@H]3CCCNC3)c(F)c2)nn1 [Example 479, (R)-2-fluoro-N-(2-(3-hydroxyprop-1-yn-1-yl)thieno[3,2-c]pyridin-4-yl)-4-(1-methyl-1H-1,2,3-triazol-4-yl)-N-(piperidin-3-yl)benzamide]	–
5400	Cn1cc(-c2ccc(C(=O)N(c3nccc4cc(/C=C/C(N)=O)ccc34)[C@@H]3CCCNC3)c(F)c2)nn1 [Example 496, (R,E)-N-(6-(3-amino-3-oxoprop-1-en-1-yl)isoquinolin-1-yl)-2-fluoro-4-(1-methyl-1H-1,2,3-triazol-4-yl)-N-(piperidin-3-yl)benzamide]	–
530	Cn1cc(-c2ccc(C(=O)N(c3nccc4cc(-c5ccccc5O)ccc34)[C@@H]3CCCNC3)c(F)c2)nn1 [Example 493, (R)-2-fluoro-N-(6-(2-hydroxyphenyl)isoquinolin-1-yl)-4-(1-methyl-1H-1,2,3-triazol-4-yl)-N-(piperidin-3-yl)benzamide]	–
54	Cc1cccc2ccnc(N(C(=O)c3ccc(Nc4ncc(F)cn4)cc3F)[C@@H]3CCCNC3)c12 [Example 409, (R)-2-fluoro-4-((5-fluoropyrimidin-2-yl)amino)-N-(8-methylisoquinolin-1-yl)-N-(piperidin-3-yl)benzamide]	–
49	Cc1cccc2ccnc(N(C(=O)c3ccc(Nc4nccc(C5=CCOCC5)n4)cc3F)[C@@H]3CCCNC3)c12 [Example 685, (R)-4-((4-(3,6-dihydro-2H-pyran-4-yl)pyrimidin-2-yl)amino)-2-fluoro-N-(8-methylisoquinolin-1-yl)-N-(piperidin-3-yl)benzamide]	–
180	Cc1csc2ccnc(N(C(=O)c3ccc(-c4nnc(CCC#N)s4)cc3)[C@@H]3CCCNC3)c12 [Example 882, 4-[5-(2-cyanoethyl)-1,3,4-thiadiazol-2-yl]-N-(3-methylthieno[3,2-c]pyridin-4-yl)-N-[(3R)-3-piperidyl]benzamide]	–
75	Cc1csc2ccnc(N(C(=O)c3ccc(-c4cn(C)nn4)cc3F)[C@@H]3CCCNC3)c12 [Example 841, (R)-2-fluoro-4-(1-methyl-1H-1,2,3-triazol-4-yl)-N-(3-methylthieno[3,2-c]pyridin-4-yl)-N-(piperidin-3-yl)benzamide]	–
32	Cc1cccc2ccnc(N(C(=O)c3ccc(Nc4nccc(N5CCC[C@@H]5CO)n4)cc3F)[C@@H]3CCCNC3)c12 [Example 966, 2-fluoro-4-({4-[(2R)-2-(hydroxymethyl)pyrrolidin-1-yl]pyrimidin-2-yl}amino)-N-(8-methylisoquinolin-1-yl)-N-[(3R)-piperidin-3-yl]benzamide]	–
400	Cc1cccc2ccnc(N(C(=O)c3ccc(-c4nnc5n4CCCC5)cc3F)[C@@H]3CCCNC3)c12 [Example 432, (R)-2-fluoro-N-(8-methylisoquinolin-1-yl)-N-(piperidin-3-yl)-4-(5,6,7,8-tetrahydro-[1,2,4]triazolo[4,3-a]pyridin-3-yl)benzamide]	–
760	COc1ccc2c(N(C(=O)c3ccc(-c4nnc(C)s4)cc3)[C@@H]3CCCNC3)nccc2c1F [Example 868, N-(5-fluoro-6-methoxy-1-isoquinolyl)-4-(5-methyl-1,3,4-thiadiazol-2-yl)-N-[(3R)-3-piperidyl]benzamide]	–
230	NC(=O)c1ccc(-c2cc3c(N(C(=O)c4ccc(-n5nnc6cccnc65)cc4F)[C@@H]4CCCNC4)nccc3s2)cc1C(F)(F)F [Example 573, 4-[4-[[2-fluoro-4-(triazolo [4,5-b]pyridin-3-yl)benzoyl]-[(3R)-3-piperidyl]amino]thieno [3,2-c]pyridin-2-yl]-2-(trifluoromethyl) benzamide]	–
92	Cc1csc2ccnc(N(C(=O)c3ccc(-c4cc(Cl)cnn4)cc3F)[C@@H]3CCCNC3)c12 [Example 768, (R)-4-(5-chloropyridazin-3-yl)-2-fluoro-N-(3-methylthieno[3,2-c]pyridin-4-yl)-N-(piperidin-3-yl)benzamide]	–
